Results: article PMC8448819, “The Arabidopsis MIK2 receptor elicits immunity by sensing a conserved signature from phytocytokines and microbes” (Nature Communications, 2021)

Legend:
Type in all cases: in vivo, Arabidopsis thaliana
[1] = system: Arabidopsis WT seedling roots; assay: Microscopy of root browning and root meristems, WT
mik2-1 seedling roots = assay: Microscopy of root meristems, mik2-1; conditions: mik2-1, 1 µM, 48 h
[2] = system: MPK3, MPK4 and MPK6 phosphorylation, WT seedlings; assay: MAPK assay (α-pERK1/2 immunoblot), WT; conditions: Supplementary Fig. 3i
Protocol: Ten-day-old seedlings grown vertically on ½MS plates were transferred to ddH2O overnight for recovery. Then, ddH2O was replaced by 100 nM peptides for the indicated time.

[3] = system: RLK7^ECD-MIK2^TK/rlk7 and RLK7/rlk7 transgenic seedlings; assay: Root growth assay, rlk7, RLK7/rlk7 and RLK7^ECD-MIK2^TK/rlk7 seedlings
Text: The BAK1 (AT4G33430), SERK4 (AT2G13790), BIK1 (AT2G39660), and MIK2 (AT4G08850) coding sequences (CDSs) were amplified by PCR from Col-0 cDNA using the primers containing BamHI at the 5′ end and StuI at the 3′ end. The PCR products were digested by BamHI and StuI, followed by ligation into the pHBT-FLAG or pHBT-HA vector to generate pHBT-35S::BAK1-FLAG, pHBT-35S::SERK4-FLAG, pHBT-35S::BIK1-HA, pHBT-35S::MIK2-HA, and pHBT-35S::MIK2-GFP constructs[24],[41],[62]. MIK2^ECD (residues 1–707) and BAK1^ECD (residues 1–220) were amplified by PCR from Col-0 cDNA and cloned into pFastBac-1 vector with a C-terminal 6× HIS tag[25],[62]. The fusion protein vectors carrying MIK2^ECD or BAK1^ECD were used for insect cell expression. To obtain the binary vector pCAMBIA1300-35S::RLK7, a 2907-bp RLK7 CDS was PCR-amplified from WT cDNA using gene-specific primers with KpnI and SalI at the 5′ and 3′ ends, respectively, followed by KpnI and SalI digestion and ligation into the pCAMBIA1300 vector. To generate the binary vector pCAMBIA1300 carrying the RLK7^ECD-MIK2^TK chimeric receptor gene, an 1824-bp fragment encoding RLK7^ECD was PCR-amplified from WT cDNA using a gene-specific forward primer with KpnI at the 5′ end and a gene-specific reverse primer with 8-bp overlapping sequence from the 5′ end of MIK2^TK, and a 1011-bp fragment encoding MIK2^TK using a gene-specific forward primer with 8-bp overlapping sequence from the 3′ end of RLK7 ^ECD and a gene-specific reverse primer with SalI at the 5′ end. RLK7^ECD was fused with MIK2^TK and inserted into the pUC19 vector using in-fusion recombinant enzymes (Clontech). […]
Cold stratified seeds were surface-sterilized with 70% (v/v) ethanol for 5 min and were sown on ½MS plates with or without peptides at indicated concentrations. Ten-day-old seedlings grown on plates vertically in a growth chamber were photographed, and the root lengths of seedlings were measured using Image J (http://rsb.info.nih.gov/ij/).

[4] = system: RLK7^ECD-MIK2^TK/rlk7 and RLK7/rlk7 transgenic seedlings; assay: ROS assay (luminol), RLK7/rlk7 and RLK7^ECD-MIK2^TK/rlk7 seedlings; conditions: for ROS production, total: Fig. 1d
Protocol: ROS burst was determined by a luminol-based assay. […] Then, ddH2O was replaced by 200 µL of reaction solution containing 50 µM of luminol, and 10 µg/mL of horseradish peroxidase (Sigma-Aldrich) supplemented with or without 100 nM or 1 μM peptide. Luminescence was measured immediately after adding the solution with a luminometer (Glomax 20/20n, Promega) with a one-second interval for 15 min. The total values of ROS production were indicated as means of the relative light units (RLUs).

[5] = system: gene expression, RLK7^ECD-MIK2^TK/rlk7 seedlings; assay: RNA-Seq, RLK7^ECD-MIK2^TK/rlk7; conditions: for gene expression fold change: RLK7ECD-MIK2TK/rlk7, 1 μM PIP1 vs Ctrl, 1 h
Protocol: Seedlings were then treated with or without 1 μM PIP1 or SCOOP12 for 1 or 6 h and harvested for RNA isolation. Total RNAs (5 μg) from two biological replicates were pooled for cDNA library construction. cDNA library preparation and sequencing were carried out on an Illumina HiSeq 4000 platform with 150-nucleotide pair-end reads in LC-BIO (Hangzhou, China). Total reads were mapped to the Arabidopsis genome (TAIR10; www.arabidopsis.org) with Hisat, and the read counts for every gene were generated with StringTie. The expression levels of genes were calculated by quantifying the cDNA fragments per kilobase of transcript per million fragments mapped (FPKM). Differentially expressed genes (DEGs) between different treatments were defined by fold change of read counts at 1 and 6 h compared to that at 0 h (differential expression analysis using edgeR, fold change ≥ 2 with p-value ≤ 0.01). DEGs were listed in Supplementary Data 2.

[6] = RLK7^ECD-MIK2^TK/rlk7, 1 µM PIP1

PNGDIFTGPSGSGHGGGR [SCOOP10B, synthesized SCOOP peptide corresponding to the SxS motif]
root browning ([1]; WT seedlings, prolonged treatment): led to brown roots
root meristem distortion ([1]; WT, 5-day-old seedlings, 1 µM, 48 h, PI staining): distorted root meristems
root meristem distortion in mik2-1 (mik2-1 seedling roots): not observed in mik2-1
MAPK activation in shoots and roots [2]: triggered the MAPK activation in both shoots and roots

RLASGP(OH)SPRGRGH [PIP1, secreted peptide, ligand of RLK7]
root growth retardation ([3]; RLK7/rlk7 and RLK7^ECD-MIK2^TK/rlk7, 1 µM PIP1): restored the sensitivity to PIP1 treatment exhibiting root growth retardation
brown roots and darkened root-hypocotyl junctions ([3]; RLK7^ECD-MIK2^TK/rlk7): brown roots and darkened root-hypocotyl junctions
root growth retardation vs RLK7/rlk7 [3, 6]: more substantial root growth retardation
ROS production, total ([4]; RLK7/rlk7 L4, 100 nM PIP1, one-week-old seedlings, repeat 1): 239291 RLU
ROS production, total ([4]; RLK7/rlk7 L4, 100 nM PIP1, one-week-old seedlings, repeat 2): 252204 RLU
ROS production, total ([4]; RLK7/rlk7 L4, 100 nM PIP1, one-week-old seedlings, repeat 3): 283681 RLU
ROS production, total ([4]; RLK7/rlk7 L4, 100 nM PIP1, one-week-old seedlings, repeat 4): 318922 RLU
ROS production, total ([4]; RLK7/rlk7 L5, 100 nM PIP1, one-week-old seedlings, repeat 1): 275783 RLU
ROS production, total ([4]; RLK7/rlk7 L5, 100 nM PIP1, one-week-old seedlings, repeat 2): 220663 RLU
ROS production, total ([4]; RLK7/rlk7 L5, 100 nM PIP1, one-week-old seedlings, repeat 3): 252086 RLU
ROS production, total ([4]; RLK7/rlk7 L5, 100 nM PIP1, one-week-old seedlings, repeat 4): 358908 RLU
ROS production, total ([4]; RLK7ECD-MIK2TK/rlk7 L9, 100 nM PIP1, one-week-old seedlings, repeat 1): 1753777 RLU
ROS production, total ([4]; RLK7ECD-MIK2TK/rlk7 L9, 100 nM PIP1, one-week-old seedlings, repeat 2): 1827311 RLU
ROS production, total ([4]; RLK7ECD-MIK2TK/rlk7 L9, 100 nM PIP1, one-week-old seedlings, repeat 3): 2926668 RLU
ROS production, total ([4]; RLK7ECD-MIK2TK/rlk7 L9, 100 nM PIP1, one-week-old seedlings, repeat 4): 3467034 RLU
ROS production, total ([4]; RLK7ECD-MIK2TK/rlk7 L9, 100 nM PIP1, one-week-old seedlings, repeat 5): 1491639 RLU
ROS production, total ([4]; RLK7ECD-MIK2TK/rlk7 L16, 100 nM PIP1, one-week-old seedlings, repeat 1): 3868648 RLU
ROS production, total ([4]; RLK7ECD-MIK2TK/rlk7 L16, 100 nM PIP1, one-week-old seedlings, repeat 2): 1259772 RLU
ROS production, total ([4]; RLK7ECD-MIK2TK/rlk7 L16, 100 nM PIP1, one-week-old seedlings, repeat 3): 2844613 RLU
ROS production, total ([4]; RLK7ECD-MIK2TK/rlk7 L16, 100 nM PIP1, one-week-old seedlings, repeat 4): 3037378 RLU
ROS production, total ([4]; RLK7ECD-MIK2TK/rlk7 L16, 100 nM PIP1, one-week-old seedlings, repeat 5): 940879 RLU
ROS production ([4]; RLK7/rlk7, 100 nM PIP1): weakly induced ROS production
ROS production ([4]; RLK7^ECD-MIK2^TK/rlk7, 100 nM PIP1): robust production of ROS
small peptide genes induced [5, 6]: 51 genes
expression of SCOOP genes ([5]; RLK7^ECD-MIK2^TK/rlk7, 1 µM PIP1, 0, 1 and 6 h): induces the expression of SCOOP genes
SCOOP, STMP and SCOOP/STMP-like genes induced ([5]; RLK7^ECD-MIK2^TK/rlk7, 1 µM PIP1, among 51 induced small peptide genes): 18 genes
gene expression fold change ([5]; gene AT1G53080): 194.45
gene expression fold change ([5]; gene AT5G52400): 19374.61
gene expression fold change ([5]; gene AT5G52700): 11109.32
